According to ChEMBL document CHEMBL1141163, “QSAR studies of copper azamacrocycles and thiosemicarbazones: MM3 parameter development and prediction of biological properties” (J Med Chem, 2005):

Experiment: Partition coefficient (logP)
Type: physicochemical
Settings: octanol/water

**Q.** For Copper(II) Complex, which logP is on record?
**A.** The logP was -2.29.
